Experiment [1] addresses Sodium-dependent dopamine transporter (Rattus norvegicus, UniProt P23977).
The target of experiment [2] is Norepinephrine transporter (Rattus norvegicus, UniProt Q9JIA2).
Experiment [3] has as its target Sodium-dependent serotonin transporter (Rattus norvegicus, UniProt P31652).

Sodium-dependent dopamine transporter, sequence (P23977 whole entry): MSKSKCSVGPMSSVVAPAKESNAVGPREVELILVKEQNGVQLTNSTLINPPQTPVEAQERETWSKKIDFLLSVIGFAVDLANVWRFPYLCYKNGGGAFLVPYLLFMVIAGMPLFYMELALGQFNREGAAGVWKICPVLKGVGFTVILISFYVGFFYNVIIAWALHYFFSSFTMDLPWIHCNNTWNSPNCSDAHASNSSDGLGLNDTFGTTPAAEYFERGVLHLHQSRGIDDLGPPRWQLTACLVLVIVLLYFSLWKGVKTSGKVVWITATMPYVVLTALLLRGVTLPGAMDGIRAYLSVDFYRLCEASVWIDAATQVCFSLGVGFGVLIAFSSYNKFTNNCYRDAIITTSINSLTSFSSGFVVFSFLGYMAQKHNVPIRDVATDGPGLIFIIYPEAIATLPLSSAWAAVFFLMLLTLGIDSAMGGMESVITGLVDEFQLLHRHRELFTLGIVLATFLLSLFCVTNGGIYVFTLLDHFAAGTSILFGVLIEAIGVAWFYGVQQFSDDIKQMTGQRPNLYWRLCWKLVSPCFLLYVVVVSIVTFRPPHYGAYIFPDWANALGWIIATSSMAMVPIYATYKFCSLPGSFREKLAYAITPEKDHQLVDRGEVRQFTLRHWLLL
Sodium-dependent serotonin transporter, sequence (P31652 whole entry): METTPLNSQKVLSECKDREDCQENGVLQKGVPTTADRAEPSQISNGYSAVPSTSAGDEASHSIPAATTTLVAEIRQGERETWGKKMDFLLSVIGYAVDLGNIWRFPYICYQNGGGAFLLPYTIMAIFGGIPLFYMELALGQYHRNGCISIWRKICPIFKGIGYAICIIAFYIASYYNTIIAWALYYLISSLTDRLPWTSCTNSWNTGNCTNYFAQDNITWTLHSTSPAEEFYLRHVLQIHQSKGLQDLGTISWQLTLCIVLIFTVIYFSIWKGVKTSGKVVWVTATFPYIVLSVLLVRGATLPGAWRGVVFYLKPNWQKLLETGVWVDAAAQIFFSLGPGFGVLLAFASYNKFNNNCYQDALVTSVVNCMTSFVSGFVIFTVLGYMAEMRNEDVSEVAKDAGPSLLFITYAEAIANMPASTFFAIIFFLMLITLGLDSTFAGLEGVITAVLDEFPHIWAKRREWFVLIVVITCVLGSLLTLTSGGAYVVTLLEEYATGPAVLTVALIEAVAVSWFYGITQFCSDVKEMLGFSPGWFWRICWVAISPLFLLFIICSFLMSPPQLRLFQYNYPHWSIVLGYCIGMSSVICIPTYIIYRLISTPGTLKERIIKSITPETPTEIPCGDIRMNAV

With `CCn1cc(C(=O)O)c(=O)c2ccc(Cc3ccccc3)nc21`, the Ki is 18.7 nM in experiment [1] and more than 10000 nM in experiment [2].
In turn, `CNCCC(Oc1ccccc1OC)c1ccccc1` (stereo not drawn) [3-(2-methoxyphenoxy)-N-methyl-3-phenylpropan-1-amine] registered a Ki in experiment [2] of 0.46 nM.
For the compound `COCCCC/C(=N\OCCN)c1ccc(C(F)(F)F)cc1` [(1E)-5-methoxy-1-[4-(trifluoromethyl)phenyl]pentan-1-one O-(2-aminoethyl)oxime], the inhibition constant (Ki) in experiment [1] was more than 10000 nM; in experiment [2], 5000 nM.
Turning to `C[C@H](N)Cc1ccccc1` [beta-aminopropylbenzene], in experiment [2], the affinity corresponds to a Ki of 1000 nM. In other words, the single-digit micromolar range.
As for `COC(=O)[C@H](c1ccccc1)[C@H]1CCCCN1` [methyl (2R)-phenyl[(2R)-piperidin-2-yl]acetate], the inhibition constant (Ki) was more than 10000 nM in experiment [3] and 126 nM in experiment [2].

Usually Ki stands for the dissociation constant of the complex between target and ligand, obtained from inhibition or displacement.

Values taken from BindingDB's records for doi:10.1124/jpet.301.3.1097 (Harvard University, 2002).
